# In patent US20200253864A1, “VOLATILE ANESTHETIC COMPOSITIONS COMPRISING EXTRACTIVE SOLVENTS FOR REGIONAL ANESTHESIA AND/OR PAIN RELIEF” (The Board of Regents of the University of Texas System, priority 2008, published 2020):
# Values joined by “and” are separate entries in the source; they are usually repeats but may differ in a detail not shown here. Equal values may be shown once.
# Assays:
# [1] = Stability/volatility: weighing remaining isoflurane in uncapped vials over time; type: physicochemical; conditions: for Effect of the solvent on the volatility of isoflurane: solution versus pure isoflurane (Table 6)
# Protocol: The stability of isoflurane in the compositions was determined in two ways. Firstly, the compositions were examined for the presence of phase separation at the macroscopic level. Secondly, isoflurane content of the compositions were determined by weighing the remaining isoflurane in the composition when they were left uncapped over time. […] The other vials received varying amounts of isoflurane. They were left uncapped in the hood. Over time (0, 0.4, 1 , 16 , 24 h), the vials were weighed to see if the isoflurane stayed in the composition or evaporated. The amount evaporated over time in the vehicle was subtracted from that in the isoflurane composition, and therefore the amount of isoflurane in the vehicle was roughly determined at each time point.
# Pure form of isoflurane is a volatile agent. In order to determine the volatility of isoflurane, two vials received the indicated amounts of pure form of isoflurane. The vials were placed in the chemical fume hood and left uncapped. The vials were weighed in the indicated times to determine the amount of evaporated isoflurane. As it is shown in the table below 0.7893g isoflurane was evaporated within 3 hrs whereas 3.4825 g isoflurane took approximately 8 hrs to evaporate completely. These amounts of isoflurane are similar to the amounts of isoflurane that were used to prepare isoflurane (iso) compositions as shown below.
# rats = test: Plantar Heat Stimulation Test (paw withdrawal latency) after subcutaneous injection into hindpaw; type: in vivo, rat; conditions: for Antinociceptive effect, treated versus untreated (contralateral) paw: 100 μl subcutaneously into hindpaw (pure isoflurane n=4; 2% lidocaine n=3), P<0.05
# Protocol: Intraplanar Administration of Isoflurane: 100 μl of pure form Isoflurane or 100 μl of 2% Lidocaine was injected subcutaneously into the planar surface of the hindpaw. Every rat, the contralateral hindpaw, served as its own control.
# Measurement of Paw Withdrawal Latency: Rats are tested for response to thermal stimulation using radiant heat (Planar Analgesia Instrument, UgoBasile, Italy). After the rats acclimate for 15 min under the acrylic boxes that allow minimal movement, the heat source was positioned beneath the mid-plantar surface of the hind paw. Withdrawal latency is defined as the period of time from the beginning of the thermal stimulation to the brisk withdrawal of the hind paw. To avoid tissue damage, a cutoff time of 22s was set. Thermal stimulation was applied three times to each hind paw at an inter-stimulus interval of 3-5 min. Thermalnociceptive threshold was assessed before and after the treatment. An increase in the withdrawal threshold in the treated paw compared to the control paw is assessed as analgesic activity of the tested formulation.
# Statistical Analysis: For statistical comparison, student paired t-test analysis was used. Differences were considered significant at P<0.05.
# Sprague-Dawley rats = test: Intrathecal injection of isoflurane or sevoflurane, hotplate test (thermal withdrawal latency); type: in vivo, rat; conditions: for Thermal withdrawal latency, Average (per rat): average of three tests, both paws; for Thermal withdrawal latency, Group Average: four rats; for Thermal withdrawal latency, Test 1 Left / Thermal withdrawal latency, Test 1 Right / Thermal withdrawal latency, Test 2 Left / Thermal withdrawal latency, Test 2 Right / Thermal withdrawal latency, Test 3 Left / Thermal withdrawal latency, Test 3 Right: individual rats, cutoff 25 seconds; for Adverse effects / Full recovery from the intrathecal injection (return to thermal latency baseline): intrathecal 2 microliters, rats; for Analgesic effect: intrathecally delivered dose of 2 microliters
# Protocol: This study was designed to evaluate efficacy of direct intrathecal injection of anesthetic agent gases in reducing pain and providing analgesia. The study was conducted over a one (1) month period using anesthetic gases isoflurane and sevoflurane injected directly intrathecally or dissolved in saline as shown in the studies below. The subject animal used was the rat, since the rat has a well-established model of pain/analgesia testing. In particular, Sprague-Dawley rats weighing over 350gm were used. The rats were anesthetized with pentobarbital (50mg/kg), and the anesthetic depth of the animals was determined by corneal reflex and paw withdrawal reflex to a noxious stimulus.
# […]. A midline surgical dissection of the posterior neck muscles was performed to obtain access to the occipito-atlantoid membrane. This membrane was identified and then dissected. A sterile polyethylene catheter was introduced in the subarachnoid space until the lumbar enlargement of the spinal cord (approximately 7-8 cm measured in each animal). The surgical wound was closed, first suturing the neck muscles with 3-0 silk sutures and then closing the skin incision with staples.
# After the surgery, the rats were moved to their cages and a radiant lamp was placed over the cages so that the rats would not undergo anesthetic-induced hypothermia. The rats were continuously monitored from the end of the surgery until they were fully awake. Rats showing any motor impairment after surgery were euthanized.
# On the fifth day after surgery, those rats without wound infection or motor dysfunction were transported to the pain behavioral lab to enter the intrathecal study with volatile anesthetics. Twelve rats were selected for the study. All these rats had intrathecal catheters.
# Isoflurane (1-chloro-2,2,2-trifluoroethyl difluoromethyl ether) and sevoflurane (fluoromethyl 2,2,2-trifluoro-1-(trifluoromethyl) ethyl ether) were used as the halogenated ether compounds. Both of these are halogenated volatile anesthetic agents, with isoflurane manufactured by Baxter and sevoflurane manufactured by Abbott Laboratories. The 12 rats were divided into 3 groups of four rats each for study A and B.
# In the first group, 2 microliters of preservative-free normal saline was injected via the intrathecal catheter into each rat. This catheter was then flushed with preservative-free normal saline. Pain behavioral testing on this group was then performed.
# In the second group, 2 microliters of isoflurane was injected via the intrathecal catheter into each rat. This catheter was also flushed with preservative-free normal saline. This group was then subjected to pain behavioral testing.
# In the third group, 2 microliters of sevoflurane was injected via the intrathecal catheter into each rat. This catheter was also flushed with preservative-free normal saline. This group was then subjected to pain behavioral testing.
# A “hotplate” behavioral test was used to evaluate pain perception and analgesia. The pain behavioral testing model used in these studies have been well established by Tony Yaksh. (See, e.g. Chaplan et al., 1994; Yaksh et al., 2001; Kim and Chung, 1992; Sorkin et al., 2001). This test involves determining how quickly a rat will withdraw its hind paw in response to a noxious stimulus such as a radiant heat source placed directly underneath its paw. This time for withdrawal is known as “thermal withdrawal latency”.
# Rats were transferred for testing onto a modified Hargreaves apparatus with a heated glass plate maintained at 25° C. (see Hargreaves et al., 1988). A focused projection bulb below the plate was aimed at the mid-plantar surface of the paw. A photodiode-activated timer measured the withdrawal latency, and a cutoff time of 25 seconds was used to prevent tissue damage. Thermal withdrawal latency to radiant heat was measured at 5 minutes and 30 minutes after each intrathecal injection. Each paw was tested three times, and the results were averaged. […]
# [2] = 100 μl subcutaneously into hindpaw
# [3] = 5 minutes after 2 microliters intrathecal
# [4] = 5 minutes after 2 microliters intrathecal, saline control group 8.33
# [5] = 30 minutes after 2 microliters intrathecal
# [6] = 30 minutes after 2 microliters intrathecal, saline control group 8.40
SMILES,Effect of the solvent on the volatility of isoflurane [1],Start of the antinociceptive effect (rats; [2]),"Antinociceptive effect, treated versus untreated (contralateral) paw (rats)","Thermal withdrawal latency, Average (per rat) (Sprague-Dawley rats; [3])","Thermal withdrawal latency, Group Average (Sprague-Dawley rats; [4])","Thermal withdrawal latency, Test 1 Left (Sprague-Dawley rats; [3])","Thermal withdrawal latency, Test 1 Right (Sprague-Dawley rats; [3])","Thermal withdrawal latency, Test 2 Left (Sprague-Dawley rats; [3])","Thermal withdrawal latency, Test 2 Right (Sprague-Dawley rats; [3])","Thermal withdrawal latency, Test 3 Left (Sprague-Dawley rats; [3])","Thermal withdrawal latency, Test 3 Right (Sprague-Dawley rats; [3])","Thermal withdrawal latency, Average (per rat) (Sprague-Dawley rats; [5])","Thermal withdrawal latency, Group Average (Sprague-Dawley rats; [6])","Thermal withdrawal latency, Test 1 Left (Sprague-Dawley rats; [5])","Thermal withdrawal latency, Test 1 Right (Sprague-Dawley rats; [5])","Thermal withdrawal latency, Test 2 Left (Sprague-Dawley rats; [5])","Thermal withdrawal latency, Test 2 Right (Sprague-Dawley rats; [5])","Thermal withdrawal latency, Test 3 Left (Sprague-Dawley rats; [5])","Thermal withdrawal latency, Test 3 Right (Sprague-Dawley rats; [5])",Adverse effects (Sprague-Dawley rats),other results
CCN(CC)CC(=O)Nc1c(C)cccc1C [lidocaine],,5 min,significant antinociceptive effect,,,,,,,,,,,,,,,,,,Peak of the antinociceptive effect (rats; [2]): 15 min; Return of the antinociceptive effect to baseline levels (rats; [2]): 45 min
"FC(F)OC(Cl)C(F)(F)F (stereo not drawn) [Isoflurane, 1-chloro-2,2,2-trifluoroethyl difluoromethyl ether]",,25 min,significant (P<0.05) antinociceptive effect,19.25 s and 18.21 s and 18.63 s and 17.95 s,18.51 s,17.23 s and 19.24 s and 18.11 s and 19.71 s,19.81 s and 17.19 s and 19.20 s and 20.31 s,18.91 s and 17.65 s and 19.80 s and 17.18 s,20.38 s and 15.88 s and 17.90 s and 18.34 s,18.82 s and 20.72 s and 20.07 s and 16.38 s,20.34 s and 18.59 s and 16.71 s and 16.75 s,9.48 s and 8.93 s and 10.52 s and 9.21 s,9.53 s,9.12 s and 6.35 s and 8.37 s and 10.27 s,9.87 s and 9.08 s and 6.32 s and 9.41 s,9.02 s and 8.22 s and 8.45 s and 7.04 s,10.59 s and 7.81 s and 9.48 s and 6.76 s,9.77 s and 11.62 s and 10.48 s and 10.32 s,8.54 s and 10.49 s and 11.03 s and 7.88 s,None of the rats in the study experienced adverse effects,"Duration of the antinociceptive effect (rats; [2]): continued throughout the experiment; % remaining iso, 0 h ([1]; 0 h): 100%; Time for isoflurane to evaporate ([1]; 0.7893 g pure isoflurane, uncapped): ≤ 3 h; Time for isoflurane to evaporate completely ([1]; 3.4825 g pure isoflurane, uncapped): approximately 8 hrs; % remaining iso, 5 h ([1]; 5 h): 38%; % remaining iso, 7 h ([1]; 7 h): 13%; % remaining iso, 8 h ([1]; 8 h): 3%; Full recovery from the intrathecal injection (return to thermal latency baseline) (Sprague-Dawley rats): 30 min; Analgesic effect (Sprague-Dawley rats): analgesic effect"
"FCOC(C(F)(F)F)C(F)(F)F [Sevoflurane, fluoromethyl 2,2,2-trifluoro-1-(trifluoromethyl) ethyl ether]",,,,14.65 s and 13.82 s and 13.14 s and 12.98 s,13.65 s,14.90 s and 13.38 s and 12.34 s and 11.83 s,13.81 s and 17.19 s and 14.98 s and 10.31 s,15.11 s and 12.31 s and 11.03 s and 12.66 s,13.23 s and 14.29 s and 13.93 s and 13.20 s,14.83 s and 12.01 s and 14.16 s and 12.31 s,16.03 s and 13.75 s and 12.37 s and 17.59 s,8.61 s and 8.35 s and 8.89 s and 9.54 s,8.84 s,8.54 s and 6.87 s and 8.44 s and 10.93 s,9.23 s and 7.38 s and 10.05 s and 9.55 s,8.29 s and 7.99 s and 11.74 s and 6.68 s,7.30 s and 8.92 s and 9.32 s and 8.67 s,8.87 s and 8.10 s and 6.13 s and 12.11 s,9.43 s and 10.83 s and 7.66 s and 9.27 s,None of the rats in the study experienced adverse effects,Full recovery from the intrathecal injection (return to thermal latency baseline) (Sprague-Dawley rats): 30 min; Analgesic effect (Sprague-Dawley rats): analgesic effect

# Second part, led by results:
Effect of the solvent on the volatility of isoflurane [1],SMILES,Start of the antinociceptive effect (rats; [2]),"Antinociceptive effect, treated versus untreated (contralateral) paw (rats)","Thermal withdrawal latency, Average (per rat) (Sprague-Dawley rats; [3])","Thermal withdrawal latency, Group Average (Sprague-Dawley rats; [4])","Thermal withdrawal latency, Test 1 Left (Sprague-Dawley rats; [3])","Thermal withdrawal latency, Test 1 Right (Sprague-Dawley rats; [3])","Thermal withdrawal latency, Test 2 Left (Sprague-Dawley rats; [3])","Thermal withdrawal latency, Test 2 Right (Sprague-Dawley rats; [3])","Thermal withdrawal latency, Test 3 Left (Sprague-Dawley rats; [3])","Thermal withdrawal latency, Test 3 Right (Sprague-Dawley rats; [3])","Thermal withdrawal latency, Average (per rat) (Sprague-Dawley rats; [5])","Thermal withdrawal latency, Group Average (Sprague-Dawley rats; [6])","Thermal withdrawal latency, Test 1 Left (Sprague-Dawley rats; [5])","Thermal withdrawal latency, Test 1 Right (Sprague-Dawley rats; [5])","Thermal withdrawal latency, Test 2 Left (Sprague-Dawley rats; [5])","Thermal withdrawal latency, Test 2 Right (Sprague-Dawley rats; [5])","Thermal withdrawal latency, Test 3 Left (Sprague-Dawley rats; [5])","Thermal withdrawal latency, Test 3 Right (Sprague-Dawley rats; [5])",Adverse effects (Sprague-Dawley rats),other results
reduced the volatility of isoflurane,CC(O)CO (stereo not drawn) [propylene glycol],,,,,,,,,,,,,,,,,,,,Reduction of isoflurane volatility compared with NMP ([1]; Table 10 versus Table 8): not as good as NMP
reduced the volatility of isoflurane,"CN1CCCC1=O [NMP, N-Methyl-2-pyrrolidone]",,,,,,,,,,,,,,,,,,,,
